Experimental data published in patent US20060135568A1, “Methods of treating microbial infections in humans and animals” (priority 2002, published 2006).
Entries after “also recorded” stand apart in the source; their conditions may differ.

Test system: b-subunit of ATP synthase (atpF, Rv1306) and hsp (Rv0251c)
Assay type: cell-based, M. bovis BCG (Pasteur strain, ATCC 35734)

SMILES: NNC(=O)c1ccncc1 [INH, isoniazid]
- overexpression of hsp and b-subunit of ATP synthase on 2-D gels: Neither; also recorded: failed to result in overexpression

SMILES: CCCCCCCCS(=O)(=O)CC(N)=O [OSA, n-octanesulfonylacetamide]
- overexpression of hsp and b-subunit of ATP synthase on 2-D gels: significant overexpression
- time to overexpression of both proteins post exposure: ≤ 3.5 h

SMILES: C/C=C/C/C=C/CCC(=O)[C@H]1O[C@H]1C(N)=O [cerulenin]
- overexpression of hsp and b-subunit of ATP synthase on 2-D gels: Neither; also recorded: failed to result in overexpression
